These results are taken from patent US6544987B2, “Compounds, compositions, and methods for stimulating neuronal growth and elongation” (Pfizer Inc., priority 1999, dated 2003).

“And” between values parts separate entries of the source, which are not always exact repeats. Equal values may be shown once.

Data set [1] addresses T1, FKBP12 (Homo sapiens, UniProt P62942). Briefly: Rotamase inhibition assay (N-succinyl-Ala-Ala-Pro-Phe-p-nitroanilide, chymotrypsin-coupled). The data set is classed as biochemical. Particulars: Table 1; read-out: Rotamase Ki(app). The procedure:
In the rotamase inhibition assay, isomerization of an artificial substrate N-succinyl-Ala-Ala-Pro-Phe-p-nitroanilide is followed spectrophotometrically. The assay includes the cis form of the substrate, FKBP12, the compound being tested, and chymotrypsin. Chymotrypsin is able to cleave p-nitroaniline from the trans form of the substrate, but not from the cis form. Release of p-nitroaniline is measured spectrophotometrically. Using this assay, various amounts of the FKBP rotamase-inhibiting compounds of formula (I) were added to cis-N-succinyl-alanine-alanine-proline-phenylalanine-para-nitroaniline (BACHEM, 3132 Kashiwa Street, Torrance, Calif. 90505) in the presence of FKBP12 and chymotrypsin. Spectrophotometric measurements of p-nitroaniline concentrations allowed estimation of the apparent Ki values, which are provided in Table 1 below.

Data set [2] has as its target T1, FKBP12. Briefly: Affinity for FKBP-12 (Ki), succinyl-Ala-Leu-Pro-Phe-pNA chymotrypsin-coupled assay. The data set is classed as biochemical. Also on record: key to FKBP12 inhibition (in Kiapps column): NI: no inhibition; NSI: no significant inhibition. As to conditions: for Ki: Table 2, read-out: FKBP12 Kiapps. The procedure:
In a quartz cuvette, a final 1 mL buffer concentration was reached (50 mM Hepes, 100 mM NaCl, pH 8.0). Within this final reaction volume, 3.5 μL […] FKBP-12 (in 50 mM Hepes, 100 mM NaCl, pH 8.0) and 10 μL test compound in DMSO were added. The reaction was initiated by adding 10 μL chymotrypsin (100 mg/mL in 1 mM HCl) followed by 5 μL (1-20 mM succinyl-Ala-Leu-Pro-Phe-pNA in 240 mM LiCl/TFE).
The absorbance at 390 nm versus time was monitored for up to 400 seconds. Rate constants were determined from the absorbance versus time plots generated.

Data set [3] deals with T1, FKBP12. Briefly: Binding to FKBP by microcalorimetry. As for the experimental part: Binding of compounds to FKBP may be measured directly using microcalorimetry. Calorimetric titrations are carried out using the MCS-ITC instrument (MicroCal Inc., Northhampton, Mass.). The titrations may be conducted as follows. Protein dialysate is degassed for 15 minutes using MicroCal equipment. Stock inhibitor solution is added to co-solvent (typically DMSO) and degassed dialysate, followed by brief sonication, to produce the final inhibitor solutions to be used in the titrations. Final inhibitor solutions are in the concentration range 10 to 80 μM. Dialyzed protein is added to co-solvent and degassed dialysate to produce FKBP12 solutions in the concentration range 200 to 1600 μM. As both solutions are prepared using degassed dialysate, no additional degassing of the solutions is performed. Co-solvent is added to the protein solutions to maintain a fixed co-solvent concentration throughout the course of the titration. Protein is titrated into inhibitor using a 125-μL injection syringe. The titrations are conducted with the ligand in the cell due to low solubility of inhibitors. Typically, a preliminary 2-μL injection is followed by fifteen 8-μL injections made at varying injection intervals. A full set of dilution controls is conducted for each titration. An appropriate volume of co-solvent is added to degassed dialysate to produce the buffered co-solvent solution used to obtain heats of dilution of the reactants. After correcting for the heats of dilution and deletion of the preliminary injection, the titration results are fitted using the “One Set of Sites Model” in the ORIGIN software package supplied with the instrument.

The subject of data set [4] is PC12 rat pheochromocytoma cells. The data set can be described thus: Neurite outgrowth activity in PC12 rat pheochromocytoma assay. The data set is classed as cell-based. Particulars: PC-12 cells; active concentration range. As for the experimental part: For example, compounds may be tested to determine their neurotrophic activity using the method described by Lyons et al., Proc. Natl. Acad. Sci., 91:3191-3195 (1994). In this rat pheochromocytoma assay for neurite outgrowth, PC12 rat pheochromocytoma cells are maintained at 37° C. and 5% CO2 in Dulbecco's modified Eagle's medium (DMEM) supplemented with 10% heat-inactivated horse serum and 5% heat-inactivated fetal bovine serum. Cells are then plated, coated at 10^5 per 35 mm culture well with rat tail collagen at […], and allowed to attach. Medium is then replaced with DMEM supplemented with 2% horse serum, 1% fetal bovine serum, nerve growth factor (NGF), and/or varying concentrations of test compounds. The control cultures are administered NGF without any of the test compounds.

Data set [5] is described as follows: Solubility noted in FKBP12 assay table. The data set is classed as physicochemical. As to conditions: read-out: Sol (solubility).

T1 sequence (P62942 whole entry, species assumed): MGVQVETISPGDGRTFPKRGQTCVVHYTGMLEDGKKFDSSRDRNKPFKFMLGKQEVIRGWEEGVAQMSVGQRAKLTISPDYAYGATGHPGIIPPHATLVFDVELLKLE

Regarding `COc1cc(NS(=O)(=O)N2CCCC[C@H]2C(=O)OC(CCCc2ccccc2)CCCc2ccccc2)cc(OC)c1OC` [Compound 22, 1-(3,4,5-Trimethoxy-phenylsulfamoyl)-piperidine-2S-carboxylic acid 4-phenyl-1-(3-phenyl-propyl)-butyl ester], the Ki on FKBP12 [1] came to 382 nM.

Turning to `CCC(C)(C)NS(=O)(=O)N1CCCC[C@H]1C(=O)OC(CCCc1ccccc1)CCCc1ccccc1` [Compound 23, 1-(1,1-Dimethyl-propylsulfamoyl)-piperidine-2S-carboxylic acid 4-phenyl-1-(3-phenyl-propyl)-butyl ester], the Ki at FKBP12 [1] was determined as 6990 nM. `O=C(OCCCCc1ccccc1)[C@@H]1CCCCN1S(=O)(=O)Nc1ccccc1` [Compound 24, 1-Phenylsulfamoyl-piperidine-2S-carboxylic acid 4-phenyl-butyl ester]: the Ki was 1160 nM and 508 nM at FKBP12 [2]; 1160 nM at FKBP12 [1]. Usually Kd stands for the free concentration of one partner at which half of the binding sites on the other are occupied at equilibrium, for simple one-to-one binding. Turning to `COc1cc(NS(=O)(=O)N2CCCC[C@H]2C(=O)OCCCCc2ccccc2)cc(OC)c1OC` [Compound 25, 1-(3,4,5-Trimethoxy-phenylsulfamoyl)-piperidine-2S-carboxylic acid 4-phenyl-butyl ester], the Ki on FKBP12 [2] is 200 nM and 180 nM; at FKBP12 [1], 200 nM. Further, at FKBP12 [3], the equilibrium dissociation constant (Kd) stood at 1200 nM. In addition, the “Neurite-Outgrowth Activity (PC-12)” value in data set [4] was 0.001 to 1 µM. Take `CCC(C)(C)NS(=O)(=O)N1CCCC[C@H]1C(=O)OCCCCc1ccccc1` [Compound 26, 1-(1,1-Dimethyl-propylsulfamoyl)-piperidine-2S-carboxylic acid 4-phenyl-butyl ester]: the Ki at FKBP12 [2] was 193 nM and 218 nM; at FKBP12 [1], 193 nM. On to `CCC(C)(C)NS(=O)(=O)N1CCC[C@H]1C(=O)OCCCc1cccnc1` [Compound 31, 1-(1,1-Dimethyl-propylsulfamoyl)-pyrrolidine-2S-carboxylic acid 3-pyridin-3-yl-propyl ester], for which the Ki was 2790 nM and 1100 nM at FKBP12 [2]; 2790 nM at FKBP12 [1]. The Kd on FKBP12 [3] came to 4500 nM. Further, the “Neurite-Outgrowth Activity (PC-12)” value in data set [4] fell in the range of 0.001 to 1 µM. With `O=C(OCCCc1cccnc1)[C@@H]1CCCN1S(=O)(=O)Nc1ccccc1` [Compound 33, 1-Phenylsulfamoyl-pyrrolidine-2S-carboxylic acid 3-pyridin-3-yl-propyl ester], the Ki at FKBP12 [2] was determined as 3960 nM. For the same molecule, binding on FKBP12 [3] was put at a Kd of 14000 nM. In data set [4], the “Neurite-Outgrowth Activity (PC-12)” value was 0.001 to 1 µM.

Usually solubility stands for the dissolved amount per volume that the medium holds. Consider `COc1cc(NS(=O)(=O)N2[C@@H]3CC[C@@H](C3)[C@H]2C(=O)OCCCCc2ccccc2)cc(OC)c1OC` [Compound 84, 2-(3,4,5-Trimethoxy-phenylsulfamoyl)-2-aza-bicyclo[2.2.1]heptane-exo-3-carboxylic acid 4-phenyl-butyl ester], for which the “FKBP12 inhibition (in Kiapps column)” value on FKBP12 [2] (at 1 μM) is “NI”. The solubility in data set [5] was under 30 µM. Turning to `O=C(OC(COCc1ccccc1)COCc1ccccc1)[C@@H]1CCCCN1S(=O)(=O)Nc1cnc(N2CCOCC2)c(C(F)(F)F)c1` [Compound 108, (S)-1-(Morpholin-4-yl-trifluoromethyl-pyridin-3-ylsulfamoyl)-piperidine-2-carboxylic acid 2-benzyloxy-1-benzyloxymethyl-ethyl ester], the Ki on FKBP12 [2] worked out at 127 nM. Turning to `COc1cc(NS(=O)(=O)N2CCCC[C@H]2C(=O)N[C@H](COCc2cccnc2)C(C)C)cc(OC)c1OC` [Compound 112, (S)-1-(3,4,5-Trimethoxy-phenylsulfamoyl)-piperidine-2-carboxylic acid [(S)-2-methyl-1-(pyridin-3-ylmethoxymethyl)-propyl]-amide], the Ki at FKBP12 [2] is 41 nM.

With `CCC(C)(C)NS(=O)(=O)N1CCC[C@H]1COC(=O)N(CCc1ccccc1)Cc1ccccc1` [Compound 113, Benzyl-phenethyl-carbamic acid (S)-1-(dimethyl-propylsulfamoyl)-pyrrolidin-2-ylmethyl ester], at FKBP12 [2], the Ki stood at 33000 nM. Same read-out and setting: the value for `CCC(C)(C)NS(=O)(=O)N1CCC[C@H]1C(=O)NCCCc1cccnc1` [Compound 114, (S)-1-(1,1-Dimethyl-propylsulfamoyl)-pyrrolidine-2-carboxylic acid (3-pyridin-3-yl-propyl)-amide] was 1110 nM.

Take `O=C(OCc1ccccc1)[C@@H]1CCCN1S(=O)(=O)Nc1cccnc1` [Compound 115, (S)-1-(Pyridin-3-ylsulfamoyl)-pyrrolidine-2-carboxylic acid benzyl ester]: on FKBP12 [2], the Ki was 20400 nM. For the molecule `O=C(O)[C@@H]1CCCN1S(=O)(=O)Nc1cccnc1` [Compound 116, (S)-1-(Pyridin-3-ylsulfamoyl)-pyrrolidine-2-carboxylic acid], the “FKBP12 inhibition (in Kiapps column)” value on FKBP12 [2] (@ 20) was “NSI @ 20”. In the case of `O=C1[C@@H]2CCCN2S(=O)(=O)N1c1cccnc1` [Compound 117, (S)-1,1-Dioxo-2-pyridin-3-yl-hexahydro-1λ^6-thia-2,6a-diaza-pentalen-3-one], at FKBP12 [2] (@ 20), the “FKBP12 inhibition (in Kiapps column)” value is given as “NSI @ 20”. As to `O=C(NCCCc1ccccc1)[C@@H]1CCCN1S(=O)(=O)Nc1cccnc1` [Compound 118, (S)-1-(Pyridin-3-ylsulfamoyl)-pyrrolidine-2-carboxylic acid (3-phenyl-propyl)-amide], the Ki on FKBP12 [2] is 16900 nM.

As for `COc1cc(NS(=O)(=O)N2CCCC[C@H]2C(=O)CCCCCc2ccccc2)cc(OC)c1OC` [Compound 119, (S)-2-(6-Phenyl-hexanoyl)-piperidine-1-sulfonic acid (3,4,5-trimethoxy-phenyl)-amide], the Ki on FKBP12 [2] was 1300 nM.
